Laboratory results from PMC4401734, “The Crystal Structure of D-Threonine Aldolase from Alcaligenes xylosoxidans Provides Insight into a Metal Ion Assisted PLP-Dependent Mechanism” (PLoS ONE, 2015).

Assays:
[1] = target: T1, AxDTA; D-threonine aldolase from Alcaligenes xylosoxidans (Achromobacter xylosoxidans, UniProt A0A0J9X243); assay: X-ray crystallography, […] Å; format: binding; details: active site; two alternate conformations: covalent (internal aldimine with Lys59, ~40% occupancy) and non-covalent (~60%); Mn2+ nearby; crystals at pH 8.1
T1 construct: full-length, residues 1-379, cloned from genomic DNA into pET101/D-TOPO with native TGA stop (degenerate reverse primer), no tag; E. coli BL21 Star (DE3); treated by reductive lysine methylation before crystallisation (no methylation seen in density); residues 1-6 (A) and 1-7 (B) disordered; dimer in crystal
T1 sequence (A0A0J9X243 1-379): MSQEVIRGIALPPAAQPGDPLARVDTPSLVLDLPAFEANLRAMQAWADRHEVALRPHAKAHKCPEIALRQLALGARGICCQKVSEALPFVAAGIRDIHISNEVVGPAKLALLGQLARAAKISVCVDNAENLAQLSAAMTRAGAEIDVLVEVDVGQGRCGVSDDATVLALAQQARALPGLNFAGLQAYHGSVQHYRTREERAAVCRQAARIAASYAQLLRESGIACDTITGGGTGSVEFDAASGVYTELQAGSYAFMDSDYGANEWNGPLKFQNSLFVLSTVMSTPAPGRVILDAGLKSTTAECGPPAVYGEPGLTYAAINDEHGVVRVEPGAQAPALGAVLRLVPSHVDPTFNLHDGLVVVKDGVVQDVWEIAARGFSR

[2] = target: D-threonine aldolase from Alcaligenes xylosoxidans (Alcaligenes xylosoxidans IFO 12669); assay: crystal structure; X-ray, 1.5 Å, space group P2(1), two molecules per asymmetric unit; crystals from 200 mM sodium chloride, 100 mM Tris/HCl pH 8.1, 13% (w/v) PEG-3350

Row | Compound | X-ray crystallography, 1.5 Å [1] | stoichiometry N [2]
1 | Cc1ncc(COP(=O)(O)O)c(C=O)c1O [PLP, pyridoxal phosphate] | modeled by a molecule of pyridoxal phosphate (PLP) in two alternate conformations: covalently linked to Lys59 | –
2 | D-threonine aldolase from Alcaligenes xylosoxidans (enzyme) | – | 2
